Publication PMC2919811 (Analytical biochemistry, 2010)
Where “and” joins values, the source holds several entries; their conditions need not be identical. Equal entries are not always repeated.

What was measured:
[1] = target: T1, OCT1 (Homo sapiens, UniProt O15245); assay: Cellular accumulation in CHO cells transiently transfected with OCT1; format: cell-based; conditions: 10 μM 8-FcA, 20 minutes
T1 sequence (O15245 1-554): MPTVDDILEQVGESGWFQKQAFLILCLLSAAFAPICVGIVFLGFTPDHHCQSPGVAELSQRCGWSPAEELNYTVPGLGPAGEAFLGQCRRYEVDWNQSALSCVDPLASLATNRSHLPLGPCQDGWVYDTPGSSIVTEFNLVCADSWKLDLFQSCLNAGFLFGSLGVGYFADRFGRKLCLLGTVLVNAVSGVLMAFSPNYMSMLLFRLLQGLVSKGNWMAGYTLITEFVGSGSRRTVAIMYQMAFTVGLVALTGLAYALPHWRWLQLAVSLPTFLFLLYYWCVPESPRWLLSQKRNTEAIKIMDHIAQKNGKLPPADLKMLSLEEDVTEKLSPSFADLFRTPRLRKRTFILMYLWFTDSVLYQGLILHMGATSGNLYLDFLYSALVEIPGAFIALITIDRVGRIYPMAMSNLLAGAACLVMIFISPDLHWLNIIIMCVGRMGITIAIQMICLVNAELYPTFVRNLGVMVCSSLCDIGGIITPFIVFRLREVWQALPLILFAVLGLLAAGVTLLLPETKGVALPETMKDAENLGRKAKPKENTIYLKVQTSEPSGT

[2] = target: T2, OAT3 (Homo sapiens, UniProt Q8TCC7); format: cell-based; conditions: 10 μM 8-FcA, 20 minutes
T2 sequence (Q8TCC7 1-542): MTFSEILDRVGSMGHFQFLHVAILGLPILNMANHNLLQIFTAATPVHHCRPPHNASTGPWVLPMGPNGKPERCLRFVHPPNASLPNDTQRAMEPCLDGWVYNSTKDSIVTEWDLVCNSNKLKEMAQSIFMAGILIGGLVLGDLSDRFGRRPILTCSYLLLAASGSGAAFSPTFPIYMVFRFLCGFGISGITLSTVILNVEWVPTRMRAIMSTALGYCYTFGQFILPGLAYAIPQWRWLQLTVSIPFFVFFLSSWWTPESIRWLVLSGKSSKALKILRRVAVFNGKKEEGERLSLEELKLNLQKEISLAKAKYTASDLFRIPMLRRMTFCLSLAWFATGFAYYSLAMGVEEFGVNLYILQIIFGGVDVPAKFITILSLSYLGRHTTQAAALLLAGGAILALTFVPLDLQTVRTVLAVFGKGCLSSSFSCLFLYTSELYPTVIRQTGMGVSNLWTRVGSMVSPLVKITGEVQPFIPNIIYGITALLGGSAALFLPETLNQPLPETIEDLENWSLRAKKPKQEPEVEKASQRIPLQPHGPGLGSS

[3] = target: T3, OATP2B1 (Homo sapiens, UniProt O94956); assay: Cellular accumulation in CHO cells transiently transfected with OATP2B1; format: cell-based; conditions: 10 μM 8-FcA, 20 minutes
T3 sequence (O94956 1-709): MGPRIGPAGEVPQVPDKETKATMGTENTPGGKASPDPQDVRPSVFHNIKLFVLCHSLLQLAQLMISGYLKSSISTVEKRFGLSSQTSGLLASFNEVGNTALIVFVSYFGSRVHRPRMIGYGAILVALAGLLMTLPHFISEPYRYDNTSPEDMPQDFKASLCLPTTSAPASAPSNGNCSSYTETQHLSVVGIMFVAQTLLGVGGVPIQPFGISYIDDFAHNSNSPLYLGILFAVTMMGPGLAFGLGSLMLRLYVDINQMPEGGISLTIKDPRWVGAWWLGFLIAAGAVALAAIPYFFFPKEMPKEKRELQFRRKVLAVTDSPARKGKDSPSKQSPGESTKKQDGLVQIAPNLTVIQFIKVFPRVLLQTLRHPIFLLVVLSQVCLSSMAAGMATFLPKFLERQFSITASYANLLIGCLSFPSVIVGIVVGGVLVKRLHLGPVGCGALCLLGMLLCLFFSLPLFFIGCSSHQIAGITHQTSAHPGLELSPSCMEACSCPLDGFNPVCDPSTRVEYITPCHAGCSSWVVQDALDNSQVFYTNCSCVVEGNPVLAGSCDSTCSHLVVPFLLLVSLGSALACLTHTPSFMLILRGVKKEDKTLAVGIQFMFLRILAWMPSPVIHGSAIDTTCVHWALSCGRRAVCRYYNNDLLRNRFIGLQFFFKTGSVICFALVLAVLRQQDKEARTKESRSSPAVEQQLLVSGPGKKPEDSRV

[4] = stated in the introduction without data or own reference; cited from earlier work
[5] = target: T4, OATP1B3 (Homo sapiens, UniProt Q9NPD5); assay: Cellular accumulation in CHO cells transiently transfected with OATP1B3; conditions: 10 μM 8-FcA, 20 minutes
T4 sequence (Q9NPD5 1-702): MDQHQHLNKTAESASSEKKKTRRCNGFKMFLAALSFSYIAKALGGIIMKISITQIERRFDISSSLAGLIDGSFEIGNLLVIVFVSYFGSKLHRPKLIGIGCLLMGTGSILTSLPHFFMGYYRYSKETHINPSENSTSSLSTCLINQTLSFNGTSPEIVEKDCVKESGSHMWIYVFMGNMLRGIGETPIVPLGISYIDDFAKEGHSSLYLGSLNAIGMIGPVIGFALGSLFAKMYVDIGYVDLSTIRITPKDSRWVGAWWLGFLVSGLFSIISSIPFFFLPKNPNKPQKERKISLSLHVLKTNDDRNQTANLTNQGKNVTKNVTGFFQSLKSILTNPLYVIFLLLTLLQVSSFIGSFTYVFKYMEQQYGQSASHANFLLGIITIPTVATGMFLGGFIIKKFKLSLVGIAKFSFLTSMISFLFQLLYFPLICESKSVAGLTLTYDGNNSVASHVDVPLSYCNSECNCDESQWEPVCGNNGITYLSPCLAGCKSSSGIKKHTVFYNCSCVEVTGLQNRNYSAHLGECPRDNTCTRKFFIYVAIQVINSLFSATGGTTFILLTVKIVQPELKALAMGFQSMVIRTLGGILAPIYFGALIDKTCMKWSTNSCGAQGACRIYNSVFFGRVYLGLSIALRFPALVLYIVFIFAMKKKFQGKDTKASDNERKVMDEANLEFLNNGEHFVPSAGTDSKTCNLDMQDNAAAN

[6] = target: OATP1B1 (Homo sapiens, UniProt Q9Y6L6); assay: Substrate uptake and transport kinetics in CHO cells stably expressing OATP1B1
[7] = target: T4, OATP1B3; assay: Substrate uptake and transport kinetics in CHO cells stably expressing OATP1B3
[8] = 2 μM substrate, five minute accumulation, CHOvector = 1
[9] = 8-FcA 0.25-25 μM, 10 min uptake, CHOvector subtracted, mean ± standard error

Sequence of OATP1B1 (Q9Y6L6 whole entry): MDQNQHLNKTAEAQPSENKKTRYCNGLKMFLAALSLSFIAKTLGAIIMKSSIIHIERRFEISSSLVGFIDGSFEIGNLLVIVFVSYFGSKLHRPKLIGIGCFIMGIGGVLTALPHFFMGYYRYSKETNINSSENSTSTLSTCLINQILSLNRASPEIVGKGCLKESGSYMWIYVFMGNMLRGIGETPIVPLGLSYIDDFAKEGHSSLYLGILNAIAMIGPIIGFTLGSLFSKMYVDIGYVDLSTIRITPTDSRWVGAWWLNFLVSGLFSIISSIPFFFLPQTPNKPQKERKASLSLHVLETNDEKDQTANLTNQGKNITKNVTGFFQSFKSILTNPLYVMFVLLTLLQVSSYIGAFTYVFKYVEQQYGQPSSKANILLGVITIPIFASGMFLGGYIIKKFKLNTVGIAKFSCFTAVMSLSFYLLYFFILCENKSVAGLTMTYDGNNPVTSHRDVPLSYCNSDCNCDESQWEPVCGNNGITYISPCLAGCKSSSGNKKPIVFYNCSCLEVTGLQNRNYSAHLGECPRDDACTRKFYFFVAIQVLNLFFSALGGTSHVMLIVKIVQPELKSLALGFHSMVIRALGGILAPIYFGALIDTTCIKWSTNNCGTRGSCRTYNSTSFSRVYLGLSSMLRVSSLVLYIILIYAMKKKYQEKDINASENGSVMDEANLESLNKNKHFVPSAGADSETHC

SMILES: Nc1ncnc2c1nc(SCCNC(=S)Nc1ccc(-c3c4ccc(=O)cc-4oc4cc(O)ccc34)c(C(=O)O)c1)n2[C@@H]1O[C@@H]2COP(=O)(O)O[C@H]2[C@H]1O [8-FcA, 8-(2-[Fluoresceinyl]aminoethylthio) adenosine-3', 5'-cyclic monophosphate]
- cellular accumulation by fluorescence microscopy, OCT1 [1]: negative
- cellular accumulation by fluorescence microscopy, OAT3 [2]: negative
- cellular accumulation by fluorescence microscopy, OATP2B1 [3]: negative
- aqueous solubility [4]: very high aqueous solubility
- cellular accumulation by fluorescence microscopy, OATP1B3 [5]: readily accumulated
- transport efficiency, Vmax/Km (OATP1B1) [6]: 0.069 μL/min/cm^2
- cellular accumulation relative to control, CHOOATP1B1 [6, 8]: robust accumulation
- Vmax of OATP1B1-mediated transport [6, 9]: 0.20 pmol/min/cm^2 and 0.20±0.01 pmol/min/cm^2
- transport efficiency, Vmax/Km (OATP1B3) [7]: 0.183 μL/min/cm^2
- cellular accumulation relative to control, CHOOATP1B3 [7, 8]: robust accumulation
- Vmax of OATP1B3-mediated transport [7, 9]: 0.33 pmol/min/cm^2 and 0.33±0.02 pmol/min/cm^2
